Experimental data taken from patent publication US20170248582A1, “Mixed Spheroids of Melanocytes and Keratinocytes” (Syntivia, priority 2014, published 2017).
Entries after “also recorded” stand apart in the source; their conditions may differ.

Experiments:
[1] = test system: mixed spheroids of keratinocytes and melanocytes; test: Assay of melanin on mixed spheroids after treatment (photometry, melanin / total proteins); type: cell-based, Human
Experimental: The cells were lysed in a solution of 1M NaOH+10% DMSO and incubated 30 min at 90° C. A standard range was prepared with synthetic melanin and read-out performed at a wavelength of 405 nm. Assay of total proteins was performed on the lysate of melanin assay using the microBCA kit in accordance with the supplier's instructions. A standard range was prepared with BSA and read-out was performed at a wavelength of 605 nm. The results are expressed in the form of a ratio between the assay of melanin and assay of total proteins. 24 h after seeding, the mixed spheroids of the invention such as prepared in Example 1, and after removal of Matrigel® by washing with PBS, were treated with 300 μM IBMX or 500 μM PTU for 5 days with renewal of treatment at 4 days. The melanin was assayed as explained in Example 3.

[2] = test system: genes MITF, TYR, TYRP1 and PMEL in mixed spheroids of keratinocytes and melanocytes; test: Quantification of pigmentation gene expression by quantitative PCR in mixed spheroids; type: cell-based, Human; details: 300 μM IBMX for 24 h, normalised to GAPDH, vs non-treated control
Experimental: 48 h after their seeding the mixed spheroids of the invention such as prepared in Example 1, and after removal of Matrigel® by washing with PBS, were treated with 300 μM IBMX for 24 h. The spheroids were collected and washed with PBS after 24 h treatment with IBMX. The RNAs were extracted and reverse-transcribed to cDNA. Quantitative PCR was then performed to quantify the expression of the genes MITF, TYR, TYRP1 and PMEL. The expression of these genes was normalised by expression of the GAPDH housekeeping gene and compared with the non-treated control.

| Structure (SMILES) | induction of the amount of melanin in relation to total proteins ([1]; 300 μM IBMX for 5 days, renewal at 4 days, vs solvent control (DMSO)) [%] | total amount of melanin in the mixed spheroid ([1]; 300 μM IBMX for 5 days, compared with solvent control (DMSO), FIG. 8) | MITF expression, increased by a factor of [2] | expression of MITF gene ([2]; FIG. 9) | expression of PMEL gene ([2]; FIG. 9) | expression of TYR gene ([2]; FIG. 9) | expression of TYRP1 gene ([2]; FIG. 9) | global amount of melanin in the mixed spheroid / melanin production ([1]; 500 μM PTU for 5 days, compared with solvent control (EtOH), FIG. 8) |
| --- | --- | --- | --- | --- | --- | --- | --- | --- |
| CC(C)Cn1c(=O)n(C)c(=O)c2[nH]cnc21 [IBMX, 3-isobutyl-1-methylxanthine] | 50 | increase in the total amount of melanin | 5 | induced; also recorded: expression increased | induced; also recorded: increased | induced; also recorded: increased | induced; also recorded: increased | – |
| CCCc1cc(=O)[nH]c(=S)[nH]1 [PTU, propylthiouracil] | – | – | – | – | – | – | – | inhibits melanin production; also recorded: decrease in the global amount of melanin |
